From US20230124862A1, “BISMUTH THIOL COMPOUNDS AND COMPOSITIONS AND METHODS OF TREATING MICROBIAL CO-INFECTIONS” (Microbion Corporation, priority 2020, published 2023)
Where two headings read alike, the source gives them in different places.

How the values were obtained:
Enterococcus spp. = test: Broth microdilution MIC (Example 11); type: cell-based, E. faecalis, E. faecium; settings: Enterococcus, VRE, enterococci incl. VRE; read-out: MIC values
Candida spp. = test: Broth microdilution MIC (Example 11); type: cell-based, C. parapsilosis, C. albicans, C. glabrata, C. tropicalis
[1] = system: C. parapsilosis ATCC 22019; test: Antifungal broth microdilution (Example 13), QC organism; type: cell-based, Candida parapsilosis; settings: 24 hr, first of two values x/y (footnote b not given, presumably MIC2)
Pseudomonas aeruginosa = type: in vivo, Sprague Dawley rats; settings: rats, single dose of BisEDT, by Day 5
Experimental: The efficacy of BisEDT in reducing pulmonary bacterial burden associated with pulmonary infection in a rat model of pulmonary Pseudomonas aeruginosa infection was evaluated. The results follow.
Conclusion: Animals were divided into four experiment inhalational treatment groups: 1) Group 1, a negative control group treated with saline on Days 0, 2, and 4; 2) Group 2, a positive control group treated with tobramycin (target of 20 mg/kg, BID, Days 1-4); 3) Group 3, BisEDT (target of 0.1 mg/kg, QD, Days 0, 2, 4); and Group 4, BisEDT (target of 0.25 mg/kg, once, Day −1). Animals were further divided into two cohorts, separated by one day, to accommodate the challenge and treatment of the number of animals. All animals were exposed per protocol except Group 1 and 3, cohort 2. These animals were exposed on Days 0, 1, and 4 instead of on Days 0, 2, 4.
An in vivo efficacy study was designed to assess the efficacy of inhaled BisEDT in a chronic model of P. aeruginosa pulmonary infection. […] Animals were euthanized at Study Day 3 and 5 and assessed for level of pulmonary bacterial burden. […]

[2] = type: in vivo, patients; settings: end of treatment (Week 2-3), test of cure (Week 4-5), end of study (Week 8-9)
[3] = system: Gram-negative organisms (P. aeruginosa, E. coli, A. baumannii, H. influenzae); settings: cited from earlier work
S. aureus ATCC 29213 = settings: CLSI established QC range; cited from earlier work
[4] = system: Burkholderia cepacia complex; test: Checkerboard FIC/FICI assay; type: cell-based, Burkholderia spp.; settings: during FIC testing
Klebsiella pneumoniae = settings: K. pneumoniae ATCC BAA-1705; CLSI established QC range; cited from earlier work

In the case of `CC(S)C(C)S.[Bi]` (stereo not shown) [BisBDT, bismuth-2,3-butanedithiol], the MIC (Enterococcus spp.) is reported as 0.25 to 1 µg/mL, the MIC (Candida spp.; 24 h, C. albicans MMX 7039, Sensitive, incubation 24 hr) is reported as 2 µg/mL and the MIC (Candida spp.; 24 h, C. albicans MMX 7055, Sensitive, incubation 24 hr) is reported as 2 µg/mL. For the same compound, the MIC (Candida spp.; 24 h, C. glabrata MMX 7318, FLU^R, incubation 24 hr) was 0.25 µg/mL, the MIC (Candida spp.; 24 h, C. glabrata miX 7086, FLU^R, incubation 24 hr) was 0.5 µg/mL and the MIC (Candida spp.; 24 h, C. parapsilosis MMX 2323 (ATCC 22019), QC, incubation 24 hr) was 0.5 µg/mL. The MIC (Candida spp.; 24 h, C. tropicalis MMX 7247, FLU^R, incubation 24 hr) was 4 µg/mL, the MIC (Candida spp.; 24 h, C. tropicalis MMX 7248, FLU^R, incubation 24 hr) was 4 µg/mL and the MIC (Candida spp.; 24 h, C. tropicalis MMX 7360, FLU^R, incubation 24 hr) was 2 µg/mL. For the same compound, the MIC (Candida spp.; 48 h, C. albicans MMX 7039, Sensitive, incubation 48 hr) was 2 µg/mL, the MIC (Candida spp.; 48 h, C. albicans MMX 7055, Sensitive, incubation 48 hr) was 2 µg/mL and the MIC (Candida spp.; 48 h, C. glabrata MMX 7318, FLU^R, incubation 48 hr) was 0.5 µg/mL. For the same compound, the MIC (Candida spp.; 48 h, C. glabrata miX 7086, FLU^R, incubation 48 hr) was 1 µg/mL, the MIC (Candida spp.; 48 h, C. parapsilosis MMX 2323 (ATCC 22019), QC, incubation 48 hr) was 1 µg/mL and the MIC (Candida spp.; 48 h, C. parapsilosis MMX 7370, FLU^R, incubation 48 hr) was 0.5 µg/mL. The MIC (Candida spp.; 48 h, C. parapsilosis MMX 7555, FLU^R, incubation 48 hr) was 0.5 µg/mL, the MIC (Candida spp.; 48 h, C. tropicalis MMX 7247, FLU^R, incubation 48 hr) was 4 µg/mL and the MIC (Candida spp.; 48 h, C. tropicalis MMX 7248, FLU^R, incubation 48 hr) was 8 µg/mL. The MIC (Candida spp.; 48 h, C. tropicalis MMX 7360, FLU^R, incubation 48 hr) was 2 µg/mL and the MIC 24 hr [1] was 1 µg/mL.
For `C1C[S][Bi]([S]CC[S][Bi]2[S]CC[S]2)[S]1` [BisEDT, Bismuth-1,2-ethanedithiol], the “efficacy vs tobramycin positive control group” value (Pseudomonas aeruginosa) is given as “not significantly different”, the “proportion of subjects with >50% reduction in wound surface area from baseline vs placebo” value [2] is given as “A larger proportion” and the “CLSI acceptable MIC QC range” value ([3]; H. Influenzae ATCC 49247) is given as “(0.015-0.06) μg/mL”. The “CLSI acceptable MIC QC range” value ([3]; P. aeruginosa ATCC 27853) was 0.5 to 4 µg/mL and the “QC range of MIC” value (S. aureus ATCC 29213) was “(0.12-1) μg/mL”.
For `C[C@@H](O)[C@H]1C(=O)N2C(C(=O)O)=C(S[C@@H]3CN[C@H](C(=O)N(C)C)C3)[C@H](C)[C@H]12` [MEM], the MIC ([4]; B. cenocepacia isolate 0548) was 4 µg/mL, the MIC ([4]; B. cenocepacia isolate 0813) was 9 µg/mL and the MIC ([4]; B. cepacia isolate 0546) was 4 µg/mL. For the same compound, the MIC ([4]; B. cepacia isolate 1793) was 4 µg/mL, the MIC ([4]; B. multivorans isolate 1795) was 4 µg/mL and the “QC range of MIC” value (Klebsiella pneumoniae) was “(8-64) μg/mL”.
